The record followed here is patent US9708305B2, “Substituted 1,2,3,4-tetrahydroisoquinoline derivatives for the treatment of hormone-dependent diseases” (UNIVERSITÉ LAVAL, priority 2013, dated 2017).

Holding throughout (format): cell-based
Experiment [1] deals with alkaline phosphatase activity in Saos-2 cells. The experiment is described as follows: Alkaline phosphatase assay (Saos-2 cells), phenol library. The settings on record: 1 nM; control (no treatment) fixed at 100%. On the procedure: We also investigated the effect of selected phenol derivatives on alkaline phosphatase activity in Saos-2 cells (FIG. 13B).
Saos-2 cells were used similarly as reported in the cell proliferation assay. The cells were seeded at a density of 2 000 cells/well and treated for 3 days with each compound to be tested. The alkaline phosphatase (ALP) activity was measured using the Sensolyte® pNPP Alkaline Phosphatase Assay Kit *Colorimetric* (AnaSpec, Freemont, Calif.) following the manufacturer's protocol. Briefly, after three days of treatment, the cells were washed twice with washing buffer (provided with the kit) and lysed with 0.2% Triton X-100. The cell lysates were centrifuged and the supernatants were used to determine ALP activity. The supernatants were deposed in a 96-well plate and incubated for 30 minutes with a p-nitrophenyl phosphate solution (provided with the kit). The absorbance at 405 nm was measured with a Thermo max microplate reader (Molecular Devices, Sunnyvale, Calif.). The control (culture media+DMSO) is set to 100% of alkaline phosphatase activity.

Experiment [2] deals with alkaline phosphatase (ALP) activity in Saos-2 cells. The experiment can be described thus: Alkaline phosphatase (ALP) activity in Saos-2 cells. On the procedure: ALP is an enzyme that releases inorganic phosphate from different intracellular substrates such as pyrophosphate and pyridoxal 5′-phosphate.^63 The inorganic phosphate is used in the formation of hydroxyapatite crystals which are then inserted in the extracellular protein scaffold to form the solid part of bone tissue.
Saos-2 cells were treated similarly as reported in the cell proliferation assay. The cells were seeded at a density of 2 000 cells/well and were treated with the inhibitors and the reference compounds for 3 days. The alkaline phosphatase (ALP) activity was measured using Sensolyte® pNPP Alkaline Phosphatase Assay Kit *Colorimetric* (AnaSpec, Fremont, Calif.) following the manufacturer's protocol. Briefly, after the 3 days of treatment, the cells were washed twice with washing buffer (provided with the kit) and lysed with 0.2% Triton X-100. The cell lysates were centrifuged and the supernatants were used to determine the ALP activity. The supernatants were deposed in a 96-well plate and incubated 30 min with a p-nitrophenyl phosphate solution (provided with the kit). The absorbance at 405 nm was measured with a Thermo max microplate reader (Molecular Devices, Sunnyvale, Calif.). The control (culture media+DMSO) is set to 100% of alkaline phosphatase activity.

For experiment [3], the system named is T-47D cells. The experiment can be described thus: T-47D cell proliferation (estrogenicity / cytotoxicity), MTS.
The subject of experiment [4] is osteoblast-like Saos-2 cells. The experiment can be described thus: Saos-2 cell proliferation, MTS. The note with it: in percentage of control (100%; 0.1 nM of estradiol). The source says: First, we wanted to evaluate their effect on cell proliferation. […] This is outlined in FIG. 8A. […] One of the main roles of osteoblasts in bone tissue is to construct a calcified extracellular matrix.^15 As such, bone formation is not principally due to osteoblasts proliferation but rather osteoblasts maturation into mature osteocytes. […] This is outlined in FIG. 8B.
(§1) CellTitter 96® Aqueous One Solution Cell Proliferation Assay was used as an indirect colorimetric measurement of cell proliferation according to the manufacturer's instructions. Briefly, after the treatments, 20 μL of MTS solution was added to each well (100 μL) of the plates and incubated at 37° C. for 2 h (Saos-2) or 4 h (T-47D). The absorbance at 490 nm was then measured with a Thermo max microplate reader (Molecular Devices, Sunnyvale, Calif.). The control (culture media+DMSO) is set to 100% of cell proliferation.
Saos-2 cells were suspended in phenol-red free McCoy's 5A medium supplemented with 10% charcoal-stripped FBS, penicillin (100 IU/mL) and streptomycin (100 μg/mL). The cells were seeded in 96-well plates at a density of 3 000 cells/well and allowed to attach. After 24 h, the inhibitors and the reference compounds diluted in fresh culture media were added to the wells and replaced every 2 days for 7 days of treatment.

Experiment [5] has as its system T-47D cells. The experiment can be described thus: T-47D cell proliferation in presence of E2 (antiestrogenicity). The note with it: Homo sapiens, T47D; read-out: Breast cancer cells T-47D (ER+) Antagonist activity (%). On the procedure:
as §1
The cells were plated in 96-well plates at a density of 3 000 cells/well and allowed to attach for 48 h. After this pre-incubation, the inhibitors and the reference compounds diluted in fresh culture media were added to the wells and replaced every 2 days for 7 days of treatment.

In another experiment the test system is Saos-2 (ER+) cells. The experiment is described as follows: Proliferative activity on Saos-2 (ER+) cells, phenol library. The note with it: 1 μM (stated for reference compounds); 7 days; control 100%. On the procedure: Estrogens are known to have a beneficial effect on bones. […] The phenol derivatives 3′-EO-09 to 3′-EO-11 and 3′-EO-14 to 3′-EO-17 were tested on the osteoblast-like cell line Saos-2 to further evaluate their SERM capacity (FIG. 13A).
The osteoblast-like Saos-2 cells were maintained in culture flasks (175 cm^2 growth area, BD Falcon) at 37° C. in a 5% CO2 humidified atmosphere and grown in McCoy's 5A medium supplemented with 10% fetal bovine serum (FBS), penicillin (100 IU/mL) and streptomycin (100 μg/mL). Penicillin/streptomycin mix, L-Glutamine, normal and charcoal-stripped FBS were purchased from Wisent, Inc. (St-Bruno, QC, Canada), phenol-red free McCoy's 5A was purchased from PromoCell (Heidelberg, Germany). Chemicals tested were first dissolved in DMSO and subsequent dilutions were done in the cell culture medium. The final concentration of DMSO in the culture medium was 0.1% or less. For the proliferation assay, the […] FBS in the culture medium was replaced with 10% charcoal-stripped FBS. The cells were seeded in 96-well plates at a density of 10 000 cells/well and allowed to attach 24 h. After 24 h, the phenolic compounds diluted in culture medium were added to the wells and replaced every 2 days for 7 days of treatment. As reported above, MTS was used as an indirect colorimetric measurement of cell proliferation according to the manufacturer's instructions, except the plate were incubated 2 h instead of 4 h.

For `C[C@]12CC[C@@H]3c4ccc(O)cc4CC[C@H]3[C@@H]1CC[C@@H]2O` [E2, 17β-estradiol, reference compound], the “ALP activity in Saos-2 cells” value in experiment [1] was determined as 148%. In experiment [2] (0.1 nM), the “Bone cells Saos-2 (ER+) SERM effect Alkaline phosphatase activity (%)” value turned out to be 100%. Also, the “stimulation of ALP activity in presence of ICI-164,384 or MPP + PHTPP” value in experiment [2] (0.1 nM compound, antagonists 1 μM, 3 days) is recorded as “completely blocked the stimulation”. Besides, the T-47D cell proliferation result in the experiment on T-47D cells [3] (0.1 nM, control 100%, 7 days) is reported as “approximately 160%”. In addition, the “Breast cancer cells T-47D (ER+) Agonist activity (%)” value with T-47D cells [3] (1 μM, in % of control (100%; 0.1 nM of estradiol)) is 100%. Also, the “Bone cells Saos-2 (ER+) SERM effect Proliferative activity (%)” value in experiment [4] (0.1 μM) and in experiment [4] (1 μM) was 100% each time. Also, in the experiment on T-47D cells [5], the inhibition at 1 µM stood at 0%. Besides, the “proliferation of Saos-2 cells” value in the experiment on Saos-2 (ER+) cells turned out to be 144%.
